These results are taken from US9554988B2, “Method for preventing or treating skin tumor” (Galderma Research & Development, priority 2010, dated 2017).

Experiment [1] deals with human tumor epithelial breast cell lines or mouse mammary tumor cell line. As to conditions: activation of alpha-adrenoceptors; Vazquez et al. 2006, Bruzzone et al. 2008; cited from earlier work.
In another experiment the test system is pancreatic cancer cells. As to conditions: Shen et al. 2008; cited from earlier work.
In experiment [2] the test system is Albino hairless SKH1-hr mice. As to conditions: for Median Week to Tumor (≧1 mm): 40 weeks treatment + 12 weeks observation, time at which one-half of group has one or more qualifying tumors; for Tumor Yield (≧1 mm): average number of tumors per survivor. How it is done: Albino hairless SKH1-hr mice (36/sex/group) were treated for 40 weeks with UVR and brimonidine gel or vehicle according to the design in table 11. […] Topical treatments were performed approximately one hour before UVR on Monday, Wednesday and Friday of each week and approximately one hour after UVR Tuesday and Thursday of each week.

Setting [3] is: 0.18% topical + 600 RBU/week UVR.

Where two headings read alike, the source gives them in different places.

Consider `Clc1cccc(Cl)c1N=C1NCCN1` [clonidine], for which the “Proliferation of tumor cell lines” value in experiment [1] is “enhanced proliferation”.
`Cc1cc(C(C)(C)C)c(O)c(C)c1CC1=NCCN1` [oxymetazoline]: in experiment [1], the “Proliferation of tumor cell lines” value was “enhanced proliferation”.
Regarding `COC(=O)[C@@H]1[C@H]2C[C@H]3c4[nH]c5ccccc5c4CCN3C[C@@H]2CC[C@@H]1O` [yohimbine], in the experiment on pancreatic cancer cells, the “Apoptosis of pancreatic cancer cells” value was “induced apoptosis” and the “Proliferation of pancreatic cancer cells” value is “inhibited the proliferation”.
`Cc1cccc([C@H](C)c2cnc[nH]2)c1C` [dexmedetomidine]: the “Proliferation of tumor cell lines” value in experiment [1] is given as “enhanced proliferation”.
As to Brimonidine tartrate, in experiment [2] (setting [3]), the “Reduction of tumor yield (≧1 mm) compared to the vehicle group” value (“Reduction of tumor yield (≧1 mm)” below) came out at 1.7 fold, the “Median Week to Tumor (≧1 mm)” value came to 48 Week and the “Tumor Yield (≧1 mm)” value is listed as 2.40 tumors per survivor. In addition, in experiment [2] (1% topical + 600 RBU/week UVR), the “Members of the group that acquired one or more qualifying tumors (≧1 mm) within the 52-week study period” value was “less than one-half of the members of the groups acquired one or more qualifying tumors”, the “Reduction of tumor yield (≧1 mm)” value was determined as 4.7 fold, the “Median Week to Tumor (≧1 mm)” value is >52 Week and the “Tumor Yield (≧1 mm)” value was determined as 0.85 tumors per survivor. Besides, in experiment [2] (2% topical + 600 RBU/week UVR), the “Members of the group that acquired one or more qualifying tumors (≧1 mm) within the 52-week study period” value is listed as “less than one-half of the members of the groups acquired one or more qualifying tumors”, the “Reduction of tumor yield (≧1 mm)” value is on record as 8.1 fold, the “Median Week to Tumor (≧1 mm)” value was >52 Week and the “Tumor Yield (≧1 mm)” value was 0.49 tumors per survivor. In addition, the “UV-induced skin tumor formation” value in experiment [2] (topical 0.18%, 1% and 2% concentrations) is given as “dose-dependent delay”. Further, in experiment [2] (with increasing concentration, perceptible, 1 mm, 2 mm, 4 mm tumors, sexes combined), the “Sizes of tumors (tumor prevalence, FIG. 1)” value was “sizes of tumors were also reduced”.
